Assay [1] relates to SOD1 G93A high copy transgenic mice. In words: Neurological scoring (NeuroScore) in SOD1 G93A mouse model of ALS. As to conditions: vs vehicle. The assay is classed as in vivo. Here is the method:
Study Design. Three experimental groups of n=20 (10 male, 10 female) SOD1 G93A high copy transgenic mice were dosed daily via intraperitoneal administration of vehicle control; (R)-2-amino-N—((S)-1-(((S)-5-amino-1-(3-benzyl-1,2,4-oxadiazol-5-yl)pentyl)amino)-3-(4-hydroxy-2,6-dimethylphenyl)-1-oxopropan-2-yl)-5-guanidinopentanamide (as its tris-HCl salt-(Ia)) at 0.5 mg/kg; or (R)-2-amino-N—((S)-1-(((S)-5-amino-1-(3-benzyl-1,2,4-oxadiazol-5-yl)pentyl)amino)-3-(4-hydroxy-2,6-dimethylphenyl)-1-oxopropan-2-yl)-5-guanidinopentanamide (as its tris-HCl salt—(Ia)) at 5.0 mg/kg. Animals were dosed beginning at 8 weeks of age and dosing was continued until humane end of life (defined by the inability of animal to right itself from either side within 30 seconds when placed on its side). Experimental endpoints and in-life collections and observations were as follows: • 1. Bodyweight measurement. Daily recording of weight. • 2. Neurological scoring. Weekly NeuroScore, a qualitative assessment of neurological disease progression based upon a five-point grading system. […] The average force in grams of the 3 forepaw and 3 all-paws trials are analyzed with and without normalization to body weight. • 4. […]

The test system is the same in assay [2]. In words: Plasma neurofilament light chain (NfL) levels in SOD1 G93A mouse model of ALS. As to conditions: for plasma NfL levels Mean Diff. (Dunnett's multiple comparisons test, Vehicle vs. 0.5 mg/kg): 0.5 mg/kg daily ip; for plasma NfL levels Mean Diff. (Dunnett's multiple comparisons test, Vehicle vs. 0.5 mg/kg) / plasma NfL levels Mean Diff. (Dunnett's multiple comparisons test, Vehicle vs. 5.0 mg/kg): 10 weeks; for plasma NfL levels Mean Diff. (Dunnett's multiple comparisons test, Vehicle vs. 5.0 mg/kg): 5.0 mg/kg daily ip. The assay is classed as in vivo. How it is done: Study Design. Three experimental groups of n=20 (10 male, 10 female) SOD1 G93A high copy transgenic mice were dosed daily via intraperitoneal administration of vehicle control; (R)-2-amino-N—((S)-1-(((S)-5-amino-1-(3-benzyl-1,2,4-oxadiazol-5-yl)pentyl)amino)-3-(4-hydroxy-2,6-dimethylphenyl)-1-oxopropan-2-yl)-5-guanidinopentanamide (as its tris-HCl salt-(Ia)) at 0.5 mg/kg; or (R)-2-amino-N—((S)-1-(((S)-5-amino-1-(3-benzyl-1,2,4-oxadiazol-5-yl)pentyl)amino)-3-(4-hydroxy-2,6-dimethylphenyl)-1-oxopropan-2-yl)-5-guanidinopentanamide (as its tris-HCl salt—(Ia)) at 5.0 mg/kg. Animals were dosed beginning at 8 weeks of age and dosing was continued until humane end of life (defined by the inability of animal to right itself from either side within 30 seconds when placed on its side). Experimental endpoints and in-life collections and observations were as follows: • 1. Bodyweight measurement. Daily recording of weight. • 2. Neurological scoring. Weekly NeuroScore, a qualitative assessment of neurological disease progression based upon a five-point grading system. Scoring is defined as follows: • Score 0: Full extension of hind legs away from the lateral midline when the mouse is suspended by its tail, and the mouse can hold this extension for 2 seconds, being suspended 3 times consecutively. • Score 1: Collapse or partial collapse of the leg extension toward the lateral midline or trembling of hind legs during the tail suspension. • Score 2: Toes curl under at least twice during walking of 12 inches, or any part of the foot is dragging along the cage bottom or table. • Score 3: Rigid paralysis or minimal joint movement, the foot is not being used for forward motion. • Score 4: The mouse cannot right itself within 30 sec from either side. • 3. Grip strength test. Weekly forelimb grip strength, performed as follows: • a. Subjects are weighed and acclimated to the testing room for at least 60 min. • b. Equipment: Bioseb grip strength meter equipped with a grid for grasping that is suited for mice. • c. Mice are lowered towards the grid by their tails to allow for visual placing and for the mouse to grip the grid with their forepaws. • d. Subjects are firmly pulled horizontally away from the grid (parallel to the bench) for 3 consecutive trials with a brief (approximately 30 sec) rest period on the bench between trials. • e. The average force in grams of the 3 forepaw and 3 all-paws trials are analyzed with and without normalization to body weight. • 4. Retro-orbital blood collection. Bi-weekly retroorbital eye bleeds to determine drug exposure levels as well as levels of neurofilament light chain, a biomarker of axonal damage shown to correlate with ALS disease progression in human patients. Briefly, mice are sedated with isoflurane (5% induction, 2% maintenance) in O2. When they reach the plane of anesthesia, mice are withdrawn from isoflurane and blood is collected with a 25 μL glass capillary tube from the retro-orbital sinus, alternating sides for successive bleeds. 200 μL of whole blood is collected in a BD K2EDTA Microtainer collection tube containing 3.5 μL of 25X HALT protease inhibitor cocktail and kept on ice for processing. Mice are allowed to recover from the anesthesia, then returned to their home cage. Results […]

As to `Cc1cc(O)cc(C)c1C[C@H](NC(=O)[C@H](N)CCCNC(=N)N)C(=O)N[C@@H](CCCCN)c1nc(Cc2ccccc2)no1.Cl.Cl.Cl` [Compound Ia, (R)-2-amino-N—((S)-1-(((S)-5-amino-1-(3-benzyl-1,2,4-oxadiazol-5-yl)pentyl)amino)-3-(4-hydroxy-2,6-dimethylphenyl)-1-oxopropan-2-yl)-5-guanidinopentanamide·3HCl], the “progression of neurological symptom onset (five-point neurological score)” value in assay [1] (female SOD1 G93A mice, daily intraperitoneal) is given as “no effects”; in assay [1] (male SOD1 G93A mice, 5.0 mg/kg daily intraperitoneal from 8 weeks of age, two-way ANOVA) it was “delayed the progression of neurological symptom onset”. Besides, the “plasma NfL levels Mean Diff. (Dunnett's multiple comparisons test, Vehicle vs. 0.5 mg/kg)” value in assay [2] (female SOD1 G93A mice) is recorded as −1075; in assay [2] (male SOD1 G93A mice) it was 897.8. Also, the “plasma NfL levels Mean Diff. (Dunnett's multiple comparisons test, Vehicle vs. 5.0 mg/kg)” value in assay [2] (female SOD1 G93A mice) was found to be 1291; in assay [2] (male SOD1 G93A mice), 3469. Further, the “accumulation of NfL in plasma” value in assay [2] (male SOD1 G93A mice, 5.0 mg/kg, 10 weeks of administration) was “statistically significant impact on the accumulation of NfL”.

Source of the values: patent US12016843B2, “Compositions and methods for the treatment of amyotrophic lateral sclerosis, parkinson's disease, parkinson's disease with dementia, dementia with lewy bodies, and multiple system atrophy” (priority 2019, dated 2024).
